Patent US20260224465A1, “COMPOSITIONS COMPRISING A RETINOID AND A PROCESSED OAT INGREDIENT” (Kenvue Brands LLC, priority 2023, published 2026)

Legend:
Assay type in all cases: cell-based
IL8 [1] = experiment: IL8 gene expression (qPCR) in primary human dermal fibroblasts; conditions: 30 hours of treatment, normalized against POLR2A, concentration given by sample
Method: (§1) CRAPB2, IL8 and HAS2 were evaluated in several samples containing fermented oat, retinol, and combinations of the two in varying amounts. Retinol (BASF, 50C) was prepared by dissolving Retinol in Dimethyl Sulfoxide (DMSO) for a concentration of 20% Retinol. Retinol was then further diluted in DMEM with GlutaMAX media supplemented with 1% FBS and 1X Penn/Strep for a stock concentration of (1.1×10^−4) % and (1.1×10^−5) % Retinol. […] Fermented Oat (aurafirm P, Oat Cosmetics, Hampshire, United Kingdom; INCI Aqua, Avena sativa (Oat) Kernel Extract, Lactobacillus Ferment, Sodium Benzoate, Potassium Sorbate) was diluted in media to provide 0.2% and 1.0% Fermented Oat solutions. Primary human dermal fibroblasts were acquired from Lifeline Cell Technology, LLC (Frederick, MD 21701; lot 0967). The donor demographics were as follows: person, fibroblasts isolated from breast. Fibroblasts were cultured and expanded using Dermal Fibroblast Culture Medium (Zenbio, Inc, Durham, NC 27713). […] The cDNA was evaluated by qPCR (using the QuantStudio™ 7 Flex Real-Time PCR System from Applied Biosystems, Waltham, MA). […] The fold changes were calculated in comparison to the untreated control and two-tailed two-sample Student t-tests (Microsoft Office Excel 2007; Microsoft, Redmond, WA, USA) were performed. […]

HAS2 = HAS2 gene expression (qPCR) in primary human dermal fibroblasts; conditions: 30 hours of treatment, normalized against POLR2A, concentration given by sample
Method: as §1

CRABP2 [2] = experiment: CRABP2 gene expression (qPCR) in primary human dermal fibroblasts; conditions: 30 hours of treatment, normalized against POLR2A, concentration given by sample
Method: as §1

HBEGF = HBEGF gene expression (qPCR) in human skin explants; conditions: human abdominal skin explants, topical 4 μL in PgETOH, 48 hours
Method: (§2) Propylene glycol/ethanol (PgETOH) (3:7) (w/w) was used as a vehicle. 1% Colloidal oat (Avena Sativa Kernel Flour, Oat Cosmetics, Southampton, United Kingdom) and 0.1% Retinol solutions were each prepared in PgETOH as shown in Tables 4-7. Combinations were prepared by adding the appropriate amount of test solutions to arrive at the final concentrations as shown. Abdominal skin samples were obtained from human adults undergoing abdominoplasty surgery. Informed consent was obtained from each patient, and all experimental steps were approved by an institutional review board (IRB). Subcutaneous fat was carefully removed and skin biopsies of 0.93 cm^2 were prepared under sterile conditions and acclimated in DMEM/F12 (1:1) medium, 2% heat-inactivated fetal bovine serum, 10 μg/mL insulin, 10 ng/mL hydrocortisone, 10 ng/mL EGF, 1x ABAM under a 5% CO2 humidified atmosphere overnight. Skin explants were treated topically with 4 μL of each formulation for 48 hours. […] The fold changes were calculated in comparison to the untreated or vehicle controls and two-tailed two-sample Student t-tests (Microsoft Office Excel 2007; Microsoft, Redmond, WA, USA) were performed. Synergies were calculated as described above. […]

IL8 [3] = experiment: IL8 gene expression (qPCR) in human skin explants; conditions: human abdominal skin explants, topical 4 μL in PgETOH, 48 hours
Method: Propylene glycol/ethanol (PgETOH) (3:7) (w/w) was used as a vehicle. 1% Colloidal oat (Avena Sativa Kernel Flour, Oat Cosmetics, Southampton, United Kingdom) and 0.1% Retinol solutions were each prepared in PgETOH as shown in Tables 4-7. Combinations were prepared by adding the appropriate amount of test solutions to arrive at the final concentrations as shown.
Abdominal skin samples were obtained from human adults undergoing abdominoplasty surgery. Informed consent was obtained from each patient, and all experimental steps were approved by an institutional review board (IRB). Subcutaneous fat was carefully removed and skin biopsies of 0.93 cm^2 were prepared under sterile conditions and acclimated in DMEM/F12 (1:1) medium, 2% heat-inactivated fetal bovine serum, 10 μg/mL insulin, 10 ng/mL hydrocortisone, 10 ng/mL EGF, 1x ABAM under a 5% CO2 humidified atmosphere overnight. Skin explants were treated topically with 4 μL of each formulation for 48 hours. […]
Reverse transcription (RT) was performed using the Applied Biosystems High Capacity Reverse Transcription Kit (ThermoFisher Scientific, Bridgewater, NJ). […] The fold changes were calculated in comparison to the untreated or vehicle controls and two-tailed two-sample Student t-tests (Microsoft Office Excel 2007; Microsoft, Redmond, WA, USA) were performed. Synergies were calculated as described above. […]

CRABP2 [4] = experiment: CRABP2 gene expression (qPCR) in human skin explants; conditions: human abdominal skin explants, topical 4 μL in PgETOH, 48 hours
Method: as §2

HAS3 = HAS3 gene expression (qPCR) in human skin explants; conditions: human abdominal skin explants, topical 4 μL in PgETOH, 48 hours
Method: as §2

In the case of `CC1=C(/C=C/C(C)=C/C=C/C(C)=C/CO)C(C)(C)CCC1` [Sample 1-2, Retinol], the “IL8 Average Fold Change over untreated” value (IL8 [1]) is reported as 2.05 fold, the “HAS2 Average Fold Change over untreated” value (HAS2) is reported as 0.79 fold and the “CRABP2 Average Fold Change over untreated” value (“CRABP2 Average Fold Change” for short) (CRABP2 [2]) is reported as 1.44 fold.
In the case of `CC1=C(/C=C/C(C)=C/C=C/C(C)=C/CO)C(C)(C)CCC1` [Sample 1-3, Retinol], the “IL8 Average Fold Change over untreated” value (IL8 [1]) is reported as 18.83 fold, the “HAS2 Average Fold Change over untreated” value (HAS2) is reported as 0.50 fold and the “CRABP2 Average Fold Change” value (CRABP2 [2]) is reported as 4.25 fold.
For `CC1=C(/C=C/C(C)=C/C=C/C(C)=C/CO)C(C)(C)CCC1` [Sample 2-3, Retinol], the “HBEGF Average Fold Change over untreated” value (HBEGF) was 3.50 fold, the “IL8 Average Fold Change over untreated” value (IL8 [3]) was 2.30 fold and the “CRABP2 Average Fold Change” value (CRABP2 [4]) was 3.95 fold. For the same compound, the “HAS3 Average Fold Change over untreated” value (HAS3) was 3.05 fold.
